The structures appear in SMILES notation.

One test addresses human GABA A receptor α5β3γ2 (Homo sapiens (Human), UniProt P18507+P31644). The test is described as follows: [3H]flumazenil competition binding assay, human GABA A α5β3γ2 receptors expressed in HEK293 cells.
Conditions: not given
The method, then: The affinity of compounds at GABA A receptor subtypes was measured by competition for [3H]flumazenil (85 Ci/mmol; Roche) binding to HEK293 cells expressing rat (stably transfected) or human (transiently transfected) receptors of composition α1β3γ2, α2β3γ2, α3β3γ2 and α5β3γ2.
Cell pellets were suspended in Krebs-tris buffer (4.8 mM KCl, 1.2 mM CaCl2, 1.2 mM MgCl2, 120 mM NaCl, 15 mM Tris; pH 7.5; binding assay buffer), homogenized by polytron for ca. 20 sec on ice and centrifuged for 60 min at 4° C. (50000 g; Sorvall, rotor: SM24=20000 rpm). The cell pellets were resuspended in Krebs-tris buffer and homogenized by polytron for ca. 15 sec on ice. Protein was measured (Bradford method, Bio-Rad) and aliquots of 1 mL were prepared and stored at −80° C.
Assays were incubated to equilibrium for 1 hour at 4° C. and harvested onto GF/C uni-filters (Packard) by filtration using a Packard harvester and washing with ice-cold wash buffer (50 mM Tris; pH 7.5). After drying, filter-retained radioactivity was detected by liquid scintillation counting. Ki values were calculated using Excel-Fit (Microsoft) and are the means of two determinations.
Compound `Cc1onc(-c2ccccc2)c1COc1ccc(C(=O)NC2CCN(C(C)C)CC2)cn1` [Example 36, N-(1-Isopropyl-piperidin-4-yl)-6-(5-methyl-3-phenyl-isoxazol-4-ylmethoxy)-nicotinamide] displayed a Ki of 9.9 nM.

The same test, now with this note: human receptor; displacement of [3H]flumazenil (0.5 nM); means of two determinations; read-out: hKi GABAAa5.
As for `Cc1onc(-c2ccccc2)c1COc1ccc(C(=O)NCc2nc(C3CC3)no2)cn1` [Example 19, N-(3-Cyclopropyl-[1,2,4]oxadiazol-5-ylmethyl)-6-(5-methyl-3-phenyl-isoxazol-4-ylmethoxy)-nicotinamide], the Ki is 13.1 nM.

On to `Cc1onc(-c2ccccc2)c1COc1ccc(C(=O)NCc2cc(C3CC3)[nH]n2)cn1` [Example 20, N-(5-Cyclopropyl-1H-pyrazol-3-ylmethyl)-6-(5-methyl-3-phenyl-isoxazol-4-ylmethoxy)-nicotinamide], for which the Ki amounted to 21.6 nM.

On to `Cc1onc(-c2ccccc2)c1COc1ccc(C(=O)NCc2nc(C#N)cs2)cn1` [Example 21, N-(4-Cyano-thiazol-2-ylmethyl)-6-(5-methyl-3-phenyl-isoxazol-4-ylmethoxy)-nicotinamide], for which the Ki was determined as 2.8 nM.

Take `Cc1onc(-c2ccccc2)c1COc1ccc(C(=O)NCc2ccccn2)cn1` [Example 22, 6-(5-Methyl-3-phenyl-isoxazol-4-ylmethoxy)-N-pyridin-2-ylmethyl-nicotinamide]: the Ki came to 4.6 nM.

Take `Cc1cc(CNC(=O)c2ccc(OCc3c(-c4ccccc4)noc3C)nc2)c(=O)[nH]n1` [Example 23, N-(6-Methyl-3-oxo-2,3-dihydro-pyridazin-4-ylmethyl)-6-(5-methyl-3-phenyl-isoxazol-4-ylmethoxy)-nicotinamide]: the Ki came to 6.5 nM.

Take `Cc1onc(-c2ccccc2)c1COc1ccc(C(=O)NCC(=O)OC(C)(C)C)cn1` [Example 24, {[6-(5-Methyl-3-phenyl-isoxazol-4-ylmethoxy)-pyridine-3-carbonyl]-amino}-acetic acid tert-butyl ester]: the Ki stood at 35 nM.

Regarding `CCOC(=O)C(C)NC(=O)c1ccc(OCc2c(-c3ccccc3)noc2C)nc1` (stereo not shown) [Example 25, 2-{[6-(5-Methyl-3-phenyl-isoxazol-4-ylmethoxy)-pyridine-3-carbonyl]-amino}-propionic acid ethyl ester], the Ki is 20.2 nM.

Take `Cc1onc(-c2ccccc2)c1COc1ccc(C(=O)NC2CC2)cn1` [Example 27, N-Cyclopropyl-6-(5-methyl-3-phenyl-isoxazol-4-ylmethoxy)-nicotinamide]: the Ki stood at 2.7 nM.

For `Cc1onc(-c2ccccc2)c1COc1ccc(C(=O)NC2CCC2)cn1` [Example 28, N-Cyclobutyl-6-(5-methyl-3-phenyl-isoxazol-4-ylmethoxy)-nicotinamide], the Ki was determined as 2.8 nM.

`Cc1onc(-c2ccccc2)c1COc1ccc(C(=O)NC2CCCC2)cn1` [Example 29, N-Cyclopentyl-6-(5-methyl-3-phenyl-isoxazol-4-ylmethoxy)-nicotinamide]: the Ki came to 3.9 nM.

Regarding `Cc1onc(-c2ccccc2)c1COc1ccc(C(=O)NC2CCCCC2)cn1` [Example 30, N-Cyclohexyl-6-(5-methyl-3-phenyl-isoxazol-4-ylmethoxy)-nicotinamide], the Ki amounted to 13.1 nM.

Regarding `Cc1onc(-c2ccccc2)c1COc1ccc(C(=O)NC2CCOCC2)cn1` [Example 31, 6-(5-Methyl-3-phenyl-isoxazol-4-ylmethoxy)-N-(tetrahydro-pyran-4-yl)-nicotinamide], the Ki was 2.1 nM.

Regarding `Cc1onc(-c2ccccc2)c1COc1ccc(C(=O)NC2CCS(=O)(=O)CC2)cn1` [Example 33, N-(1,1-Dioxo-hexahydro-1,6-thiopyran-4-yl)-6-(5-methyl-3-phenyl-isoxazol-4-ylmethoxy)-nicotinamide], the Ki was 4.9 nM.

Take `CCN1CCC(NC(=O)c2ccc(OCc3c(-c4ccccc4)noc3C)nc2)CC1` [Example 35, N-(1-Ethyl-piperidin-4-yl)-6-(5-methyl-3-phenyl-isoxazol-4-ylmethoxy)-nicotinamide]: the Ki came out at 9.4 nM.

Consider `Cc1onc(-c2ccccc2)c1COc1ccc(C(=O)NC2CCN(Cc3ccccc3)CC2)cn1` [Example 37, N-(1-Benzyl-piperidin-4-yl)-6-(5-methyl-3-phenyl-isoxazol-4-ylmethoxy)-nicotinamide], for which the Ki was found to be 7.3 nM.

Turning to `Cc1onc(-c2ccccc2)c1COc1ccc(C(=O)NC2CCCN(C(=O)OC(C)(C)C)C2)cn1` (stereo not shown) [Example 38, 3-{[6-(5-Methyl-3-phenyl-isoxazol-4-ylmethoxy)-pyridine-3-carbonyl]-amino}-piperidine-1-carboxylic acid tert-butyl ester], the Ki is 43.5 nM.

Consider `CCN1CCCC(NC(=O)c2ccc(OCc3c(-c4ccccc4)noc3C)nc2)C1` (stereo not shown) [Example 39, N-(1-Ethyl-piperidin-3-yl)-6-(5-methyl-3-phenyl-isoxazol-4-ylmethoxy)-nicotinamide], for which the Ki was 5 nM.

As for `CCOC(=O)CN1CCCC(NC(=O)c2ccc(OCc3c(-c4ccccc4)noc3C)nc2)C1` (stereo not shown) [Example 40, (3-{[6-(5-Methyl-3-phenyl-isoxazol-4-ylmethoxy)-pyridine-3-carbonyl]-amino}-piperidin-1-yl)-acetic acid ethyl ester], the Ki came out at 13.8 nM.

As to `Cc1onc(-c2ccccc2)c1COc1ccc(C(=O)NC2CCCN(CC(=O)O)C2)cn1` (stereo not shown) [Example 41, (3-{[6-(5-Methyl-3-phenyl-isoxazol-4-ylmethoxy)-pyridine-3-carbonyl]-amino}-piperidin-1-yl)-acetic acid], the Ki was determined as 9.3 nM.

Take `CCNC(=O)CN1CCCC(NC(=O)c2ccc(OCc3c(-c4ccccc4)noc3C)nc2)C1` (stereo not shown) [Example 42, N-(1-Ethylcarbamoylmethyl-piperidin-3-yl)-6-(5-methyl-3-phenyl-isoxazol-4-ylmethoxy)-nicotinamide]: the Ki was found to be 13.7 nM.

As to `Cc1onc(-c2ccccc2)c1COc1ccc(C(=O)NC2CCCN(CC(=O)NC3CC3)C2)cn1` (stereo not shown) [Example 43, N-(1-Cyclopropylcarbamoylmethyl-piperidin-3-yl)-6-(5-methyl-3-phenyl-isoxazol-4-ylmethoxy)-nicotinamide], the Ki came out at 12.3 nM.

Turning to `Cc1onc(-c2ccccc2)c1COc1ccc(C(=O)NC2CCCN(CC(=O)NCC(F)(F)F)C2)cn1` (stereo not shown) [Example 44, 6-(5-Methyl-3-phenyl-isoxazol-4-ylmethoxy)-N-{1-[(2,2,2-trifluoro-ethylcarbamoyl)-methyl]-piperidin-3-yl}-nicotinamide], the Ki stood at 10.1 nM.

Regarding `Cc1onc(-c2ccccc2)c1COc1ccc(C(=O)NC2CCCN(CC(=O)NCCO)C2)cn1` (stereo not shown) [Example 45, N-{1-[(2-Hydroxy-ethylcarbamoyl)-methyl]-piperidin-3-yl}-6-(5-methyl-3-phenyl-isoxazol-4-ylmethoxy)-nicotinamide], the Ki came out at 8.4 nM.

On to `Cc1onc(-c2ccccc2)c1COc1ccc(C(=O)NC2CCCN(CC(=O)NC3CCOCC3)C2)cn1` (stereo not shown) [Example 46, 6-(5-Methyl-3-phenyl-isoxazol-4-ylmethoxy)-N-{1-[(tetrahydro-pyran-4-ylcarbamoyl)-methyl]-piperidin-3-yl}-nicotinamide], for which the Ki was determined as 13.1 nM.

With `Cc1onc(-c2ccccc2)c1COc1ccc(C(=O)NC(C)(C)C)cn1` [Example 47, N-tert-Butyl-6-(5-methyl-3-phenyl-isoxazol-4-ylmethoxy)-nicotinamide], the Ki is 11.8 nM.

`Cc1onc(-c2ccccc2)c1COc1ccc(C(=O)Nc2ccccc2)cn1` [Example 48, 6-(5-Methyl-3-phenyl-isoxazol-4-ylmethoxy)-N-phenyl-nicotinamide]: the Ki was 38 nM.

For `Cc1onc(-c2ccccc2)c1COc1ccc(C(=O)Nc2ccc(F)cc2)cn1` [Example 49, N-(4-Fluoro-phenyl)-6-(5-methyl-3-phenyl-isoxazol-4-ylmethoxy)-nicotinamide], the Ki was determined as 12.1 nM.

In the case of `Cc1onc(-c2ccccc2)c1COc1ccc(C(=O)N(C)C2CCOCC2)cn1` [Example 50, N-Methyl-6-(5-methyl-3-phenyl-isoxazol-4-ylmethoxy)-N-(tetrahydro-pyran-4-yl)-nicotinamide], the Ki was determined as 20.2 nM.

In the case of `Cc1onc(-c2ccccc2)c1COc1ccc(C(=O)N2CCCCC2)cn1` [Example 51, [6-(5-Methyl-3-phenyl-isoxazol-4-ylmethoxy)-pyridin-3-yl]-piperidin-1-yl-methanone], the Ki stood at 50.8 nM.

Turning to `Cc1onc(-c2ccccc2)c1COc1ccc(C(=O)N2CCC(F)(F)CC2)cn1` [Example 52, (4,4-Difluoro-piperidin-1-yl)-[6-(5-methyl-3-phenyl-isoxazol-4-ylmethoxy)-pyridin-3-yl]-methanone], the Ki came out at 16.8 nM.

Regarding `Cc1onc(-c2ccccc2)c1COc1ccc(C(=O)N2CCOCC2)cn1` [Example 53, [6-(5-Methyl-3-phenyl-isoxazol-4-ylmethoxy)-pyridin-3-yl]-morpholin-4-yl-methanone], the Ki came to 23.6 nM.

In the case of `Cc1onc(-c2ccccc2)c1COc1ccc(C(=O)N2CCSCC2)cn1` [Example 54, [6-(5-Methyl-3-phenyl-isoxazol-4-ylmethoxy)-pyridin-3-yl]-thiomorpholin-4-yl-methanone], the Ki was 25.6 nM.

On to `Cc1onc(-c2ccccc2)c1COc1ccc(C(=O)N2CCS(=O)(=O)CC2)cn1` [Example 55, (1,1-Dioxo-1,6-thiomorpholin-4-yl)-[6-(5-methyl-3-phenyl-isoxazol-4-ylmethoxy)-pyridin-3-yl]-methanone], for which the Ki was 22.8 nM.

These data come from patent US8846719B2, “Isoxazolo-pyridine derivatives” (Roche Palo Alto LLC, priority 2007, dated 2014).
